Some results are limits rather than exact numbers.

Experimental findings from patent US11117860B2, “Phenyl urea derivatives as n-formyl peptide receptor modulators” (Allergan, Inc., priority 2016, dated 2021) are described below.

The target of assay [1] is T1, FPR2 (Homo sapiens, UniProt P25090).
T1 construct: expressed in transfected cells
T1 sequence (P25090 1-351): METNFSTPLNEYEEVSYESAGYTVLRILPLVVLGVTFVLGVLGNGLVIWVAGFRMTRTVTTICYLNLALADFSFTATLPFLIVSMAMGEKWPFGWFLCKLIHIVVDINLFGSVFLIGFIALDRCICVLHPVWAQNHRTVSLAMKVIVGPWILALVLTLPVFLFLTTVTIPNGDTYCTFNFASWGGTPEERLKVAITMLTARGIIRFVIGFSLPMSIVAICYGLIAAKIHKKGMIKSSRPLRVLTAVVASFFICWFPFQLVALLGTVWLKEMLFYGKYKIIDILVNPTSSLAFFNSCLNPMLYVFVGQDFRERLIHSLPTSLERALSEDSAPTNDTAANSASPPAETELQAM
The experiment in a line: compound-induced calcium activity on FLIPR Tetra, CHO-Gα16 cells stably expressing FPR2. The format is cell-based. More on the design: FPR2 Ga16-CHO (% eff): unit not given here. The conditions noted are these: for FPR2 Ga16-CHO (% eff): efficacy value in parentheses; for EC50: tested at 0.61 to 10,000 nM, read-out: FPR2 Ga16-CHO EC50. How it is done: (§1) CHO-Gα16 cells stably expressing FPR1 or FPR2 were cultured in (Ham's F12 nutrient media, 10% fetal bovine serum, 1% PSA (penicillin, streptomycin, amphotericin B antiobiotic/antimycotic), 400 μg/ml geneticin and 50 μg/ml hygromycin). In general, the day before the experiment, 18,000 cells/well were plated in a 384-well clear bottom poly-D-lysine coated plate. The following day the screening compound-induced calcium activity was assayed on the FLIPR^Tetra. The drug plates were prepared in 384-well microplates using the EP3 and the MultiPROBE robotic liquid handling systems. Compounds were tested at concentrations ranging from 0.61 to 10,000 nM. Results are expressed as EC50 (nM) and efficacy values.

In assay [2] the target is T2, FPR1 (Homo sapiens, UniProt P21462).
T2 construct: expressed in transfected cells
T2 sequence (P21462 1-350): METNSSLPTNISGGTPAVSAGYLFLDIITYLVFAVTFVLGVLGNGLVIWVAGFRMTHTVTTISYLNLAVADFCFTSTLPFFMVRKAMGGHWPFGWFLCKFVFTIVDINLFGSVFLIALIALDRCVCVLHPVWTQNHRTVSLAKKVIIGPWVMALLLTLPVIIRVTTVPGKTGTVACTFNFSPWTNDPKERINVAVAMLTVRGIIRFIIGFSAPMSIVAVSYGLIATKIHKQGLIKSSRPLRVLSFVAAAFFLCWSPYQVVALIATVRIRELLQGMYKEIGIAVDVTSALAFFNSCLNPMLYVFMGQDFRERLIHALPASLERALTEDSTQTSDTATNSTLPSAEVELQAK
The experiment in a line: compound-induced calcium activity on FLIPR Tetra, CHO-Gα16 cells stably expressing FPR1. To be noted: for EC50 / FPR1 Ga16-CHO (% eff): CHO-Gα16 cells stably expressing FPR1, calcium activity; for EC50: tested at 0.61 to 10,000 nM, read-out: FPR1 Ga16-CHO EC50; for FPR1 Ga16-CHO (% eff): efficacy value in parentheses; for Ratio FPR2:FPR1 (EC50): ratio of EC50 for agonizing FPR2 to EC50 for agonizing FPR1 (selectivity for FPR1). The format is cell-based. On the procedure:
as §1

As to `CC(C)CC(C(=O)O)C(C)NC(=O)Nc1ccc(Br)cc1` (single isomer, unassigned) [Compound 106, 2-(1-(3-(4-bromophenyl)ureido)ethyl)-4-methylpentanoic acid], in assay [1], the “FPR2 Ga16-CHO (% eff)” value came to 0.75 and the EC50 stood at 9940 nM. Further, in assay [2], the EC50 turned out to be 98 nM, the FPR1 Ga16-CHO (% eff) came out at 91% and the “Ratio FPR2:FPR1 (EC50)” value was found to be 101.
The like results for `CC(C)CC(C(=O)OC(C)(C)C)C(C)NC(=O)Nc1ccc(Br)cc1` (single isomer, unassigned) [Compound 100, tert-butyl 2-(1-(3-(4-bromophenyl)ureido)ethyl)-4-methylpentanoate] were, in that order, 0.75, 3760 nM, 1420 nM, 80% and 2.6.
On to `CC(C)CC(C(=O)O)C(C)NC(=O)Nc1ccc(Br)cc1` (single isomer, unassigned) [Compound 107, 2-(1-(3-(4-bromophenyl)ureido)ethyl)-4-methylpentanoic acid], for which, in assay [1], the “FPR2 Ga16-CHO (% eff)” value came out at 0.96 and the EC50 turned out to be 25 nM. For the same molecule, in assay [2], the EC50 was 1.7 nM, the FPR1 Ga16-CHO (% eff) is 93% and the “Ratio FPR2:FPR1 (EC50)” value was 15.
Take `CC(C)CC(C(=O)O)C(C)NC(=O)Nc1ccc(Br)cc1` (single isomer, unassigned) [Compound 105, 2-(1-(3-(4-bromophenyl)ureido)ethyl)-4-methylpentanoic acid]: in assay [1], the “FPR2 Ga16-CHO (% eff)” value was found to be 0.56 and the EC50 came out at 3240 nM. In addition, in assay [2], the EC50 worked out at 13 nM, the FPR1 Ga16-CHO (% eff) came to 103% and the “Ratio FPR2:FPR1 (EC50)” value is listed as 249.
Consider `CC(C)CC(C(=O)O)C(C)NC(=O)Nc1ccc(Br)cc1` (single isomer, unassigned) [Compound 103, 2-(1-(3-(4-bromophenyl)ureido)ethyl)-4-methylpentanoic acid], for which the concentration giving a half-maximal response (EC50) in assay [1] was 41 nM; in assay [2], 0.52 nM.
On to `CC(C)CC(C(=O)O)C(C)NC(=O)Nc1ccc(Br)cc1` (racemic) [Compound 102, 2-(1-(3-(4-bromophenyl)ureido)ethyl)-4-methylpentanoic acid], for which the “FPR2 Ga16-CHO (% eff)” value in assay [1] is recorded as 0.63. Besides, in assay [2], the FPR1 Ga16-CHO (% eff) was determined as 92% and the “Ratio FPR2:FPR1 (EC50)” value was 22.
The like results for `CC(C)CC(C(=O)O)C(C)NC(=O)Nc1ccc(Br)cc1` (racemic) [Compound 103, 2-(1-(3-(4-bromophenyl)ureido)ethyl)-4-methylpentanoic acid] were, in that order, 1.04, 97% and 79.
Turning to `CC(C)CC(C(=O)O)C(C)NC(=O)Nc1ccc(Br)cc1` (single isomer, unassigned) [Compound 104, 2-(1-(3-(4-bromophenyl)ureido)ethyl)-4-methylpentanoic acid], in assay [1], the “FPR2 Ga16-CHO (% eff)” value is 0.89 and the EC50 came to 855 nM. Also, in assay [2], the EC50 was 51 nM, the FPR1 Ga16-CHO (% eff) turned out to be 94% and the “Ratio FPR2:FPR1 (EC50)” value worked out at 17.
Take `CC(C)CC(C(=O)O)C(C)NC(=O)Nc1ccc(Br)cc1` (single isomer, unassigned) [Compound 102, 2-(1-(3-(4-bromophenyl)ureido)ethyl)-4-methylpentanoic acid]: the values for the EC50 in assay [1] and in assay [2] were 1050 nM and 48 nM, respectively.
For `CC(C)CC(C(=O)OC(C)(C)C)C(C)NC(=O)Nc1ccc(Br)cc1` (single isomer, unassigned) [Compound 101, tert-butyl 2-(1-(3-(4-bromophenyl)ureido)ethyl)-4-methylpentanoate], in assay [1], the “FPR2 Ga16-CHO (% eff)” value stood at 0.73 and the EC50 is at least 10000 nM. Also, in assay [2], the EC50 is at least 10000 nM, the FPR1 Ga16-CHO (% eff) worked out at 66% and the “Ratio FPR2:FPR1 (EC50)” value stood at 1.
